Reference: patent publication US4156724A, “N-acylamino-alpha-arylacetamido cephalosporins and antibacterial compositions and methods containing them” (Sumitomo Chemical Company, Limited, priority 1974, dated 1979)
≈ marks a conversion by molar mass, not a printed value.

What was measured:
Assay type in all cases: cell-based
Proteus vulgaris HX 19 = experiment: Minimum Inhibitory Concentration, Proteus vulgaris HX 19; details: Proteus vulgaris HX 19; for MIC: HX19, read-out: Minimum Inhibitory Concentration
Description: (§1) anti-microbial activity tests were carried out on the compounds obtained in the Examples.

[1] = test system: Klebsiella pneumoniae 602; experiment: Minimum Inhibitory Concentration, Klebsiella pneumoniae 602; details: for MIC: Klebsiella pneumoniae, 602, Klebsiella pneumoniae 602, read-out: Minimum Inhibitory Concentration
Description: as §1

Escherichia coli NIHJ = experiment: Minimum Inhibitory Concentration, Escherichia coli NIHJ; details: Escherichia coli NIHJ; for MIC: read-out: Minimum Inhibitory Concentration
Description: as §1

Serratia No. 72 = experiment: Minimum Inhibitory Concentration, Serratia No. 72
Description: as §1

[2] = test system: Pseudomonas aeruginosa 104; experiment: Minimum Inhibitory Concentration, Pseudomonas aeruginosa 104; details: Pseudomonas aeruginosa 104; for MIC: read-out: Minimum Inhibitory Concentration
Description: as §1

[3] = test system: Staphylococcus aureus 209 P; experiment: Minimum Inhibitory Concentration, Staphylococcus aureus 209 P; details: Staphylococcus aureus 209 P; for MIC: read-out: Minimum Inhibitory Concentration
Description: as §1

[4] = test system: Enterobacter aerogeneus No. 75; experiment: Minimum Inhibitory Concentration, Enterobacter aerogeneus No. 75; details: Enterobacter aerogeneus No. 75; for MIC: read-out: Minimum Inhibitory Concentration
Description: as §1

[5] = test system: Staphylococcus aureus FS 289; experiment: Minimum Inhibitory Concentration, Staphylococcus aureus FS 289; details: Staphylococcus aureus FS 289, strain resistant to penicillin; for MIC: FS289, read-out: Minimum Inhibitory Concentration
Description: as §1
*Staphylococcus aureus FS 289: strain resistant to penicillin

Compound | MIC (Proteus vulgaris HX 19) | MIC [1] | MIC (Escherichia coli NIHJ) | MIC (Serratia No. 72) | MIC [2] | MIC [3] | MIC [4] | MIC [5] | Minimum Inhibitory Concentration (Proteus vulgaris HX 19) | Minimum Inhibitory Concentration ([1]; Klebsiella pneumoniae 602) | Minimum Inhibitory Concentration (Escherichia coli NIHJ) | Minimum Inhibitory Concentration (Serratia No. 72) | Minimum Inhibitory Concentration [2] | Minimum Inhibitory Concentration [3] | Minimum Inhibitory Concentration [4] | Minimum Inhibitory Concentration [5]
O=C(O)C1=C(CSc2nnc(CO)s2)CSC2C(NC(=O)C(NC(=O)c3cnc4cccnc4c3O)c3cccc(O)c3)C(=O)N12 (stereo not shown) [Example 181] | 0.2 µg/mL (≈ 0.293 µM) | 1.56 µg/mL (≈ 2.29 µM) | 1.56 µg/mL (≈ 2.29 µM) | 12.5 µg/mL (≈ 18.3 µM) | 3.13 µg/mL (≈ 4.59 µM) | 0.78 µg/mL (≈ 1.14 µM) | 6.25 µg/mL (≈ 9.17 µM) | 6.25 µg/mL (≈ 9.17 µM) | – | – | – | – | – | – | – | –
Cn1nnnc1SCC1=C(C(=O)O)N2C(=O)C(NC(=O)C(NC(=O)c3cnc4sccc4c3O)c3ccc(O)cc3)C2SC1 (stereo not shown) [Example 159] | 0.78 µg/mL (≈ 1.19 µM) | 3.13 µg/mL (≈ 4.78 µM) | 6.25 µg/mL (≈ 9.55 µM) | 50 µg/mL (≈ 76.4 µM) | 6.25 µg/mL (≈ 9.55 µM) | 0.39 µg/mL (≈ 0.596 µM) | 12.5 µg/mL (≈ 19.1 µM) | 12.5 µg/mL (≈ 19.1 µM) | – | – | – | – | – | – | – | –
O=C(O)C1=C(CSc2nnc(CO)s2)CSC2C(NC(=O)[C@H](NC(=O)c3cnc4cccnc4c3O)c3ccc(O)cc3)C(=O)N12 (stereo partly shown) [Example 150] | 0.2 µg/mL (≈ 0.293 µM) | 1.56 µg/mL (≈ 2.29 µM) | 3.13 µg/mL (≈ 4.59 µM) | 12.5 µg/mL (≈ 18.3 µM) | 3.13 µg/mL (≈ 4.59 µM) | 0.78 µg/mL (≈ 1.14 µM) | 6.25 µg/mL (≈ 9.17 µM) | 6.25 µg/mL (≈ 9.17 µM) | – | – | – | – | – | – | – | –
Cn1nnnc1SCC1=C(C(=O)O)N2C(=O)C(NC(=O)C(NC(=O)c3cnccc3O)c3ccc(O)c(O)c3)C2SC1 (stereo not shown) [Example 185] | 0.39 µg/mL (≈ 0.635 µM) | 6.25 µg/mL (≈ 10.2 µM) | 6.25 µg/mL (≈ 10.2 µM) | 50 µg/mL (≈ 81.4 µM) | 6.25 µg/mL (≈ 10.2 µM) | 0.78 µg/mL (≈ 1.27 µM) | 12.5 µg/mL (≈ 20.3 µM) | 6.25 µg/mL (≈ 10.2 µM) | – | – | – | – | – | – | – | –
O=C(O)C1=C(CSc2nncs2)CSC2C(NC(=O)[C@H](NC(=O)c3cnc4cccnc4c3O)c3ccc(O)cc3)C(=O)N12 (stereo partly shown) [Example 130] | 0.1 µg/mL (≈ 0.153 µM) | 1.56 µg/mL (≈ 2.39 µM) | 1.56 µg/mL (≈ 2.39 µM) | 12.5 µg/mL (≈ 19.2 µM) | 3.13 µg/mL (≈ 4.8 µM) | 0.78 µg/mL (≈ 1.2 µM) | 3.13 µg/mL (≈ 4.8 µM) | 3.13 µg/mL (≈ 4.8 µM) | – | – | – | – | – | – | – | –
CC(=O)OCC1=C(C(=O)[O-])N2C(=O)C(NC(=O)C(NC(=O)c3cnc4cccnc4c3O)c3cccc(O)c3)C2SC1.[Na+] (stereo not shown) [Example 138] | – | – | – | – | – | – | – | – | 0.78 µg/mL | 1.56 µg/mL | 3.13 µg/mL | 50 µg/mL | 6.25 µg/mL | 0.78 µg/mL | 6.25 µg/mL | 6.25 µg/mL
Cn1nnnc1SCC1=C(C(=O)O)N2C(=O)C(NC(=O)C(NC(=O)c3cnc4cccnc4c3O)c3cccc(N)c3)C2SC1 (stereo not shown) [Example 68] | 0.1 µg/mL (≈ 0.154 µM) | 3.13 µg/mL (≈ 4.83 µM) | 1.56 µg/mL (≈ 2.4 µM) | 12.5 µg/mL (≈ 19.3 µM) | 3.13 µg/mL (≈ 4.83 µM) | 0.78 µg/mL (≈ 1.2 µM) | 3.13 µg/mL (≈ 4.83 µM) | 3.13 µg/mL (≈ 4.83 µM) | – | – | – | – | – | – | – | –
Cc1ccc2c(O)c(C(=O)N[C@@H](C(=O)N[C@@H]3C(=O)N4C(C(=O)O)=C(CSc5nnc(C)s5)CS[C@H]34)c3ccc(NC(N)=O)cc3)cnc2n1 [Example 25] | 0.39 µg/mL (≈ 0.54 µM) | 3.13 µg/mL (≈ 4.34 µM) | 3.13 µg/mL (≈ 4.34 µM) | 12.5 µg/mL (≈ 17.3 µM) | 3.13 µg/mL (≈ 4.34 µM) | 1.56 µg/mL (≈ 2.16 µM) | 6.25 µg/mL (≈ 8.66 µM) | 6.25 µg/mL (≈ 8.66 µM) | – | – | – | – | – | – | – | –
Cc1nnc(SCC2=C(C(=O)O)N3C(=O)C(NC(=O)C(NC(=O)c4ccnnc4O)c4ccc(CO)cc4)C3SC2)s1 (stereo not shown) [Example 93] | 0.2 µg/mL (≈ 0.318 µM) | 12.5 µg/mL (≈ 19.9 µM) | 12.5 µg/mL (≈ 19.9 µM) | 50 µg/mL (≈ 79.4 µM) | 12.5 µg/mL (≈ 19.9 µM) | 0.78 µg/mL (≈ 1.24 µM) | 25 µg/mL (≈ 39.7 µM) | 12.5 µg/mL (≈ 19.9 µM) | – | – | – | – | – | – | – | –
NC(=O)Nc1ccc([C@@H](NC(=O)c2cnccc2O)C(=O)N[C@@H]2C(=O)N3C(C(=O)O)=C(CSc4cnn[nH]4)CS[C@H]23)cc1 [Example 14] | 0.1 µg/mL (≈ 0.16 µM) | 6.25 µg/mL (≈ 9.99 µM) | 6.25 µg/mL (≈ 9.99 µM) | 50 µg/mL (≈ 79.9 µM) | 6.25 µg/mL (≈ 9.99 µM) | 0.39 µg/mL (≈ 0.623 µM) | 12.5 µg/mL (≈ 20 µM) | 6.25 µg/mL (≈ 9.99 µM) | – | – | – | – | – | – | – | –
COc1ccc2ncc(C(=O)N[C@@H](C(=O)N[C@@H]3C(=O)N4C(C(=O)O)=C(CSc5nnnn5C)CS[C@H]34)c3cccc(NC(N)=O)c3)c(O)c2n1 [Example 39] | 0.1 µg/mL (≈ 0.139 µM) | 1.56 µg/mL (≈ 2.16 µM) | 1.56 µg/mL (≈ 2.16 µM) | 12.5 µg/mL (≈ 17.3 µM) | 3.13 µg/mL (≈ 4.34 µM) | 0.78 µg/mL (≈ 1.08 µM) | 3.13 µg/mL (≈ 4.34 µM) | 6.25 µg/mL (≈ 8.66 µM) | – | – | – | – | – | – | – | –
